Experiment [1] concerns the target T1, RNase A (Bos taurus, UniProt P61823).
T1 sequence (P61823 27-150): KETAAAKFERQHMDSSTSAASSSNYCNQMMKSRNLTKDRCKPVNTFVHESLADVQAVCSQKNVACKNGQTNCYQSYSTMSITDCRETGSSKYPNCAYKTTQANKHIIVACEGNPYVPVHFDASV
The experiment in a line: RNase activity test kit, modified Taq-man RNA probe analysis (ab273299). Format: biochemical. Details: purchased Abcam ab273299. Particulars: inhibitor 1 μM; after 60 minutes; positive control (no inhibitor) = 100%. As to the method:
The activity of RNase A, which degrades RNA, was evaluated using specially designed RNA probes. This RNase A analysis was performed using a commercial RNase activity test kit based on a modified Taq-man probe analysis (ab273299) from Abcam (Cambridge, UK). To compare inhibitory activity, three synthetic peptides (peptide-1, peptide-2, peptide-3) and three expressed Fv-antibodies (Fv-1, Fv-2, and Fv-3) were compared using two types of commercially available RNase inhibitors from Biofact™ (Daejeon, South Korea) and two types of RNaseOUT™ from Thermofisher (USA). The probes for the RNase inhibition analysis contained RNA probes with fluorescent dyes and quenching materials at each end of the RNA sequence. […] To estimate the RNase A inhibitory activity by the three synthesized peptides, each peptide was treated at a concentration of 1 μM using the analysis kit, and RNase activity was measured. The positive control was prepared to have an RNase reaction without an inhibitor, and the negative control was prepared to have an RNase reaction without the RNA probe. […] The RNase A inhibitory activity of the three synthesized peptides was analyzed after treating each peptide at a concentration range of 100 μM to 1 μM in the assay kit. […] The RNase A inhibitory activity of the three expressed Fv-antibodies was analyzed after treating each peptide at a concentration range of 100 μM to 1 μM in the analysis kit.
The activity of RNase A, which degrades RNA, was evaluated using specially designed RNA probes. This RNase A analysis was performed using a commercial RNase activity test kit based on a modified Taq-man probe analysis (ab273299) from Abcam (Cambridge, UK). For the comparison of inhibitory activity, three synthetic peptides (Peptide-1, Peptide-2, Peptide-3) and three expressed Fv-antibodies (Fv-1, Fv-2, and Fv-3) were compared using two types of commercially available RNase inhibitors from Biofact™ (Daejeon, South Korea) and two types of RNaseOUT™ from Thermofisher (USA). The probes for the RNase inhibition analysis contain RNA probes with fluorescent dyes and fluorescent quenchers at each end of the RNA nucleotide sequence.
To estimate the RNase A inhibitory activity of the three synthesized peptides, each peptide was treated at a concentration of 1 μM using an assay kit, and the RNase activity was evaluated. The positive control was prepared to have an RNase reaction without the inhibitor, while the negative control was prepared to have an RNase reaction without the RNA probe.
The RNase A inhibitory activity of the three synthesized peptides was analyzed after treating each peptide at a concentration range of 100 μM to 1 μM with the RNase A from the assay kit.

Experiment [2] deals with T1, RNase A. As to the kind of experiment: RNA cleavage assay with total RNA from HeLa cells, agarose gel imaging. Type of experiment: biochemical, bovine. Also noted: Ribonuclease A (Type II-A) from bovine pancreas; purchased Sigma-Aldrich Korea; host or cells: bovine pancreas. Particulars: RNase 0.7 μg/ml, agarose gel image analysis, read-out: IC50 for RNase A activity inhibition. As to the method:
The analysis of RNase inhibitory activity of Fv antibodies and synthetic peptides was performed using RNA samples extracted from HeLa cells as follows: (1) Mixing the RNA sample extracted from HeLa cells (600 ng) with 87.5 nM-5.6 μM under conditions of 37° C. for 30 minutes, (2) Electrophoresis on a 1% agarose gel at 90 V for 40 minutes. The estimation of RNase inhibitory activity was carried out by gel imaging of the cleaved RNA using a ChemiDoc XPS (Bio-Rad, CA, USA).
(§1) Using RNA samples extracted from HeLa cells, the RNase inhibitory activity of the synthesized peptides was estimated. The RNase inhibitory activity was assessed using agarose gel imaging of the cleaved RNA. To optimize the RNase concentration for the RNase inhibition assay, total RNA was treated with RNase A (600 ng), with RNase A concentrations ranging from 5.7 ng/ml to 3.6 μg/ml, and the cleaved RNA bands were observed after treatment with ETBR (ethidium bromide). […] The RNase concentration for inhibition analysis was determined to be 0.7 μg/ml, with RNase concentrations above 3.6 μg/ml. The inhibition analysis was performed by mixing total RNA from HeLa cells with RNase (0.7 μg/ml) and Fv-antibody at a concentration of 10 μM, resulting in the observation that the entire RNA was completely cleaved into small RNA bands in the absence of the Fv-antibody. […] The optimal concentration of the Fv-antibody for RNase inhibition was determined by the cleavage reaction with total RNA in the concentration range of 87.5 nM to 5.6 μM for Fv-antibodies (Fv-1, Fv-2, Fv-3).
The analysis of RNase inhibitory activity of Fv antibodies and synthetic peptides was performed using RNA samples extracted from HeLa cells as follows: (1) A mixture of RNA samples extracted from HeLa cells (600 ng) was prepared at concentrations of 87.5 nM-5.6 μM and incubated at 37° C. for 30 minutes; (2) Electrophoresis was conducted in a 1% agarose gel under 90 V for 40 minutes. The estimation of RNase inhibitory activity was carried out by gel imaging of the cleaved RNA using a ChemiDoc XPS (Bio-Rad, CA, USA).
as §1, with “the” for “the concentration”

On to Inhibitor-1 [reference compound], for which the “relative inhibition level / reduction of RNase A activity” value at RNase A [1] came to 35.8%. In addition, the 50% inhibitory concentration (IC50) (as a rule, the concentration that inhibits the measured activity by half) at RNase A [2] was determined as 257 nM.

As for Inhibitor-2 [reference compound], the “relative inhibition level / reduction of RNase A activity” value on RNase A [1] turned out to be 27.2%. Moreover, the half-maximal inhibitory concentration (IC50) on RNase A [2] came out at 381 nM.

These data come from patent publication US20260217863A1, “ANTIBODY OR PEPTIDE BINDING SPECIFICALLY TO RNASE A, IMMUNOASSAY DEVICE AND METHOD FOR DETECTING RNASE A, AND METHOD FOR COLLECTING RNASE A” (UIF (University Industry Foundation), Yonsei University, priority 2022, published 2026).
